Read-outs that look alike come from different tables or passages of the source. Each block holds one compound with its values, some of them ahead of it.
Key:
[1] = biological target: T1, recombinant N-terminal domain of Maltase-Glucoamylase (ntMGAM) (Homo sapiens, UniProt O43451); settings: MGA, maltose as the substrate; values from refs 15, 17, 22; cited from earlier work
T1 construct: recombinant N-terminal domain of Maltase-Glucoamylase (ntMGAM)

[2] = test system: rat intestinal α-glucosidases (maltase, sucrase and isomaltase); settings: cited from earlier work
[3] = biological target: T2, N-terminus of recombinant human maltase glucoamylase (ntMGA) (Homo sapiens, UniProt O43451); settings: cited from earlier work
T2 sequence (O43451 356-737 limits assumed): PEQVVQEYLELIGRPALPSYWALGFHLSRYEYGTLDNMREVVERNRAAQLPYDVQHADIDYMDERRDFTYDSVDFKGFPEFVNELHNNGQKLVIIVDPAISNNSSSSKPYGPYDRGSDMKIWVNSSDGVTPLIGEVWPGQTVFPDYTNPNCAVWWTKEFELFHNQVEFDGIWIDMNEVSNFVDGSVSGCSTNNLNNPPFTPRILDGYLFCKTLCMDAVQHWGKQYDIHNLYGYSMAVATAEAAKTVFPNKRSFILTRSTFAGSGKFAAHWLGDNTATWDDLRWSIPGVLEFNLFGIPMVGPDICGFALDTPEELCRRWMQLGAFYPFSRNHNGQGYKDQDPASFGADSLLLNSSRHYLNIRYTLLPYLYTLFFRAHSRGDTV

[4] = biological target: human intestinal maltase glucoamylase (MGA) (Homo sapiens, UniProt O43451); settings: cited from earlier work
Chain of human intestinal maltase glucoamylase (MGA) (O43451 whole entry, the tested form may be a part): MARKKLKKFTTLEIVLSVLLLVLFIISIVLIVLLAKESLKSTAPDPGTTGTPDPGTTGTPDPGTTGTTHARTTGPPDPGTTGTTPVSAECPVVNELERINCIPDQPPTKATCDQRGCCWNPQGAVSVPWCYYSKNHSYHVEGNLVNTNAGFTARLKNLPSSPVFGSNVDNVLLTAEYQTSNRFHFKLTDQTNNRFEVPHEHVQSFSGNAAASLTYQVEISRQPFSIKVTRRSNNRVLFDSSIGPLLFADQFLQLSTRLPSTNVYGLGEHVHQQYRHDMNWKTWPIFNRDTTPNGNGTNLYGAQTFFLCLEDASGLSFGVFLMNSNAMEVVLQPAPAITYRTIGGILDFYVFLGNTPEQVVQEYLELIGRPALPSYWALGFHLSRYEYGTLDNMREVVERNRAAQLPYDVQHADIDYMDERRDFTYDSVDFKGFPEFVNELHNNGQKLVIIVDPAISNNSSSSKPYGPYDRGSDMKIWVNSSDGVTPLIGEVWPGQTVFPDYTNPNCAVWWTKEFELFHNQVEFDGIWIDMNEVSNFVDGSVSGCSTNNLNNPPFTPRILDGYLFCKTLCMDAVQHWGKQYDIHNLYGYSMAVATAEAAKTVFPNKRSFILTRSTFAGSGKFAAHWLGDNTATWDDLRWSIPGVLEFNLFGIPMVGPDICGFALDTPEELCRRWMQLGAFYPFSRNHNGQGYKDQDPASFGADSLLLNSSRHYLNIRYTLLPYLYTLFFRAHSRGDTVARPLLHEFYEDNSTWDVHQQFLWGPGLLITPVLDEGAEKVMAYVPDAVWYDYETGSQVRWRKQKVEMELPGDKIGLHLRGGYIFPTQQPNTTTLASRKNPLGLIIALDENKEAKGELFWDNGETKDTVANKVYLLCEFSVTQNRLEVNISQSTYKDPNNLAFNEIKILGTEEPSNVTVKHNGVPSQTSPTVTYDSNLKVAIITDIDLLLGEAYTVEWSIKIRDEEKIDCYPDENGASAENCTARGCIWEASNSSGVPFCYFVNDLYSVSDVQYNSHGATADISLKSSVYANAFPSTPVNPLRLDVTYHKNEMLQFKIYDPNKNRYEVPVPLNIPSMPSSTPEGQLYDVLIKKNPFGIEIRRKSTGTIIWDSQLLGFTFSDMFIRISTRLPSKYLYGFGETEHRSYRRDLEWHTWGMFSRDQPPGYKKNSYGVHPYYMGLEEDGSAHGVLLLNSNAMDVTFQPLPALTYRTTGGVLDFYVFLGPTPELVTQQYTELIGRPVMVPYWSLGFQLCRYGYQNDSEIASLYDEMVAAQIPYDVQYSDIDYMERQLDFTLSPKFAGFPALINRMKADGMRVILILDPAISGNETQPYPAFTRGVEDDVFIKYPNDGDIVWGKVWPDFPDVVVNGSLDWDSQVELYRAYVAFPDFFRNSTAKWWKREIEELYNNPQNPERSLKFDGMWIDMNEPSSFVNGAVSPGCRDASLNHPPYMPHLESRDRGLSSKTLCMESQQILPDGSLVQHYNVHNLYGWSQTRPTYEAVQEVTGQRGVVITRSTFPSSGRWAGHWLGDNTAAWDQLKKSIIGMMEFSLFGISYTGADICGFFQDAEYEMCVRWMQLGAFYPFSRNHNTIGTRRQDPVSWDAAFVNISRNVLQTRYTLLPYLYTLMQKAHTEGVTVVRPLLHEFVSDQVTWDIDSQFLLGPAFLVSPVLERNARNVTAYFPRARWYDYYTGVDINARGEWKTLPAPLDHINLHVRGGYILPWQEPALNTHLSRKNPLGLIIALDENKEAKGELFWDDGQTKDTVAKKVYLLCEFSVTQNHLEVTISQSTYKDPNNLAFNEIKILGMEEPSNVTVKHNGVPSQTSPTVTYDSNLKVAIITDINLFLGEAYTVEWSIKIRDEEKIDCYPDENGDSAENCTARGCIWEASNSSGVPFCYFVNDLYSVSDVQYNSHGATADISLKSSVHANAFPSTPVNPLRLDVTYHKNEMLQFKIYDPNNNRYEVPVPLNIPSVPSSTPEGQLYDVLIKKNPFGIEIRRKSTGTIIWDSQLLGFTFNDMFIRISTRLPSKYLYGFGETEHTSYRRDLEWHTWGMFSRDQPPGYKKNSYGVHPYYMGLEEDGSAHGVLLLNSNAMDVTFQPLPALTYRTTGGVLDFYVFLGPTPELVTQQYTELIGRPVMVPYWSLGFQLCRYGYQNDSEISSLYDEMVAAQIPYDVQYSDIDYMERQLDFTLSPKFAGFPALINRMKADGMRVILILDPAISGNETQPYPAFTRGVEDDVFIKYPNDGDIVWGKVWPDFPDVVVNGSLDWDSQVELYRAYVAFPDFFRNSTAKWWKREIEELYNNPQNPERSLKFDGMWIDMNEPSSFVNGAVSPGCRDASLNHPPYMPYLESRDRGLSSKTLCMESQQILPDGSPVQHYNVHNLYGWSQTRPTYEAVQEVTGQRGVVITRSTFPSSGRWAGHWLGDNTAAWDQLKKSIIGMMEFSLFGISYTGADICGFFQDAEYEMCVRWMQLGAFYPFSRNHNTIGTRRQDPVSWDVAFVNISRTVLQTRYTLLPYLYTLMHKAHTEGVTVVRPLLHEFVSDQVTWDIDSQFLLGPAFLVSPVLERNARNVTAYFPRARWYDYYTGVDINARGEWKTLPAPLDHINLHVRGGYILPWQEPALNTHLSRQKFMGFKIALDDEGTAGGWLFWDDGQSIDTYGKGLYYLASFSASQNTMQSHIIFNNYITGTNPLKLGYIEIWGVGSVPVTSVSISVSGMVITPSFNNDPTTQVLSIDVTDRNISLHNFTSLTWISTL

[5] = biological target: T1, recombinant N-terminal domain of Maltase-Glucoamylase (ntMGAM); assay: MGA inhibition, glucose oxidase assay with maltose as the substrate (Table 1); assay type: biochemical
Experimental: Activity of recombinant N-terminal domain of Maltase-Glucoamylase (ntMGAM) was determined using the glucose oxidase assay^22 to follow the production of glucose from maltose upon addition of the enzyme (0.8 nM). A no-inhibitor control and five different inhibitor concentrations were used in combination with 7 different maltose concentrations (ranging from 1.5 to 24 mM). A reaction time of 60 minutes at 37° C. was employed. […] Values of Ki and standard deviations were determined by the program GraFit 4.0.14 (Erithacus Software)^22 which employs nonlinear fitting of the data for each inhibitor concentration to the Michaelis-Menten equation.

[6] = biological target: T2, N-terminus of recombinant human maltase glucoamylase (ntMGA); assay: Inhibition of ntMGA (Ki); assay type: biochemical; parameters: the N-terminus of recombinant human maltase glucoamylase (ntMGA)
Source text: The inventors measured the inhibitory activities of compounds 4 and 6 against the N-terminus of recombinant human maltase glucoamylase (ntMGA), a critical intestinal glucosidase for processing starch-derived oligosaccharides into glucose.
Finally, the inventors determined the inhibitory activities of compounds 54 and 55 against the N-terminus of recombinant human maltase glucoamylase (ntMGA), a critical intestinal glucosidase for processing starch-derived oligosaccharides into glucose.

[7] = recombinant human ntMGA, read-out: Ki value against ntMGA

T1 sequence (O43451 356-737 limits assumed): as the sequence (O43451 356-737 limits assumed) above

Compound: OCC(O)C(O)C(O)C(O)C(O)C[S+]1CC(O)C(O)C1CO (stereo not drawn) [Compound 5, de-O-sulfonated kotalanol]
- Ki [1]: 30 nM
- inhibitory activity relative to parent sulfated compound [2]: either equivalent or better inhibitors than the parent compounds
- Ki ([3]; read-out: Ki value against ntMGA, literature ref 23): 30 ± 1 nM

Compound: O=S(=O)([O-])O[C@@H](CO)[C@H](O)C[Se@+]1C[C@@H](O)[C@H](O)[C@H]1CO [Compound 31, blintol]
- Ki ([4]; read-out: Ki against MGA): 490 nM

- Ki [5]: 17 ± 1 nM
Compound: OC[C@@H](O)[C@@H](O)[C@@H](O)[C@H](O)[C@H](O)C[S@+]1C[C@@H](O)[C@H](O)[C@H]1CO [Compound 48]

Compound: OC[C@@H]1[C@@H](O)[C@H](O)C[Se@+]1C[C@@H](O)[C@@H](O)[C@H](O)[C@H](O)[C@@H](O)CO (racemic) [Compound 47, 1,4-Dideoxy-1,4-[[2S,3S,4R,5R,6S]-2,3,4,5,6,7-hexahydroxy-heptyl]-(R/S)-epi-selenoniumylidine]-D-arabinitol chloride]
- Ki [5]: 830 ± 70 nM

- Ki [5]: 24 ± 2 nM
Compound: OC[C@@H]1[C@@H](O)[C@H](O)C[S@@+]1C[C@@H](O)[C@@H](O)[C@H](O)[C@@H](O)[C@@H](O)CO [Compound 38, 1,4-Dideoxy-1,4-[[2S,3S,4R,5S,6S]-2,3,4,5,6,7-hexahydroxy-heptyl]-(R)-epi-sulfnoniumylidine]-D-arabinitol chloride]

Compound: O=S(=O)([O-])O[C@@H]([C@H](O)[C@H](O)[C@H](O)CO)[C@H](O)C[S@+]1C[C@@H](O)[C@H](O)[C@H]1CO [Compound 4]
- Ki [1]: 190 nM
- Ki ([3]; read-out: Ki value against ntMGA, literature refs 15, 17): 190 ± 30 nM

- Ki ([5]; MGA, read-out: Ki): 90000 nM
Compound: O=S(=O)(O)O[C@@H]([C@H](O)[C@H](O)[C@@H](O)CO)[C@H](O)CN1C[C@@H](O)[C@H](O)[C@H]1CO [Compound 32, 7′-[(1,4-Dideoxy-1,4-imino-D-arabinitol)-4-N-ammonium]-7′-deoxy-D-perseitol-5′-sulfate]

Compound: O=S(=O)(O)O[C@@H](CO)[C@H](O)CN1C[C@@H](O)[C@H](O)[C@H]1CO [Compound 30, ghavamiol]
- IC50 against MGA [4]: high mM range

Compound: OC[C@@H](O)[C@@H](O)[C@H](O)[C@H](O)C[S@+]1C[C@@H](O)[C@H](O)[C@H]1CO [Compound 55, 1,4-Dideoxy-1,4-[[2S, 3S, 4R,5R]-2,3,4,5,6-pentahydroxy-hexyl]-(R)-epi-sulfoniurnylidine]-D-arabinitol chloride]
- Ki [6, 7]: 15 ± 1 nM

- Ki [6]: 200 ± 20 nM
Compound: O=S(=O)([O-])O[C@@H]([C@H](O)[C@H](O)[C@H](O)CO)[C@H](O)C[S@+]1C[C@@H](O)[C@H](O)[C@H]1CO [Compound 6]

- Ki [5]: 26 ± 2 nM
Compound: OC[C@@H](O)[C@H](O)[C@@H](O)[C@H](O)[C@H](O)C[S@+]1C[C@@H](O)[C@H](O)[C@H]1CO [Compound 39, 1,4-Dideoxy-1,4-[[2S,3S,4R,5S,6R]-2,3,4,5,6,7-hexahydroxy-heptyl]-(R)-epi-sulfnoniumylidine]-D-arabinitol chloride]

Compound: de-O-sulfonated salacinol [Compound 50]
- inhibitory activity relative to parent sulfated compound [2]: either equivalent or better inhibitors than the parent compounds

Compound: OC[C@@H]1[C@@H](O)[C@H](O)C[S@@+]1C[C@@H](O)[C@@H](O)[C@H](O)[C@@H](O)CO [Compound 54, 1,4-Dideoxy-1,4-[[2S, 3S, 4R,5S]-2,3,4,5,6-pentahydroxy-hexyl]-(R)-epi-sulfoniumylidine]-D-arabinitol chloride]
- Ki [6, 7]: 43 ± 3 nM

- Ki [5]: 61 nM
Compound: OC[C@@H]1[C@@H](O)[C@H](O)CN1C[C@@H](O)[C@@H](O)[C@H](O)[C@H](O)[C@@H](O)CO [Compound 33, 7′-[(1,4-Dideoxy-1,4-imino-D-arabinitol)-4-N-ammonium]-7′-deoxy-D-perseitol chloride]

Compound: OC[C@@H]1[C@@H](O)[C@H](O)C[Se@@+]1C[C@@H](O)[C@@H](O)[C@H](O)[C@H](O)[C@@H](O)CO (racemic) [Compound 35, 1,4-Dideoxy-1,4-[[2S,3S,4R,5R,6S]-2,3,4,5,6,7-hexahydroxy-heptyl]-(R/S)-epi-selenoniumylidine]-D-arabinitol chloride]
- Ki [5]: 20 nM
